According to ChEMBL document CHEMBL1201862, “PubChem BioAssay data set” (2004):
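Following 48 hours of exposure in 96-well plates, responses at five concentrations were used to interpolate endpoints linearly. GI50: concentration for 50% inhibition of growth.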 Activity calls are given as the source filed them. No stated cut-off is given here; in the data, active = GI50 up to about 1.1 µM and inactive = higher.

What was measured:
Experiment in all cases: NCI tumour cell line growth inhibition, 48 h
A498 = test system: A498
IGROV-1 = test system: IGROV-1
SK-OV-3 = test system: SK-OV-3
HCT-116 = test system: HCT-116
A549 = test system: A549
RPMI-8226 = test system: RPMI-8226
CCRF-CEM = test system: CCRF-CEM
U-251 = test system: U-251
SK-MEL-28 = test system: SK-MEL-28
Malme-3M = test system: Malme-3M
MOLT-4 = test system: MOLT-4
MDA-N = test system: MDA-N
SK-MEL-2 = test system: SK-MEL-2
NCI-H522 = test system: NCI-H522
HCC 2998 = test system: HCC 2998
786-0 = test system: 786-0
MDA-MB-231 = test system: MDA-MB-231
HCT-15 = test system: HCT-15
M14 = test system: M14
K562 = test system: K562

| Compound | GI50 (A498) | GI50 (IGROV-1) | GI50 (SK-OV-3) | GI50 (HCT-116) | GI50 (A549) | GI50 (RPMI-8226) | GI50 (CCRF-CEM) | GI50 (U-251) | GI50 (SK-MEL-28) | GI50 (Malme-3M) | GI50 (MOLT-4) | GI50 (MDA-N) | GI50 (SK-MEL-2) | GI50 (NCI-H522) | GI50 (HCC 2998) | GI50 (786-0) | GI50 (MDA-MB-231) | GI50 (HCT-15) | GI50 (M14) | GI50 (K562) |
| --- | --- | --- | --- | --- | --- | --- | --- | --- | --- | --- | --- | --- | --- | --- | --- | --- | --- | --- | --- | --- |
| O=[N+]([O-])c1ccc2c(Nc3ccccc3-c3ccccc3Nc3c4ccccc4nc4cc([N+](=O)[O-])ccc34)c3ccccc3nc2c1 | 9.35 µM (inactive) | 10.8 µM (inactive) | 13.2 µM (inactive) | 1.65 µM (inactive) | 6.07 µM (inactive) | 1.69 µM (inactive) | 3.88 µM (inactive) | 2.94 µM (inactive) | 24.2 µM (inactive) | 8.63 µM (inactive) | 4.01 µM (inactive) | 1.17 µM (inactive) | 2.03 µM (inactive) | 3.87 µM (inactive) | 3.98 µM (inactive) | 1.93 µM (inactive) | 2.31 µM (inactive) | 3.77 µM | 2.92 µM (inactive) | 1.57 µM (inactive) |
| O=[N+]([O-])/C=C/c1cc2ccccc2[nH]1 | 19.3 µM (inactive) | 12.2 µM (inactive) | 16.9 µM (inactive) | 4.31 µM (inactive) | 17.5 µM (inactive) | 2.96 µM (inactive) | 2.99 µM (inactive) | 12.4 µM (inactive) | 25.4 µM (inactive) | 27.5 µM (inactive) | 15.2 µM (inactive) | 3.24 µM (inactive) | 19.3 µM (inactive) | 9.35 µM (inactive) |  | 14.6 µM (inactive) | 18.2 µM (inactive) | 21.5 µM | 12.5 µM (inactive) | 13.8 µM (inactive) |
| Cn1/c(=N\S(=O)(=O)c2ccccc2)n(S(=O)(=O)c2ccccc2)c2ccccc21 | 78.7 µM (inactive) | > 100 µM (inactive) | > 100 µM (inactive) | 48.9 µM (inactive) | 47.5 µM (inactive) | 48.1 µM (inactive) | 24.7 µM (inactive) | 34.7 µM (inactive) | > 100 µM (inactive) | 47.6 µM (inactive) | 42.9 µM (inactive) | 61.5 µM (inactive) | 34.4 µM (inactive) | 50.4 µM (inactive) |  | 88.5 µM (inactive) | > 100 µM (inactive) | > 100 µM | 53.7 µM (inactive) | 39.9 µM (inactive) |
| CCc1n[nH]c(=O)n1NC(=O)CCCC(=O)O | > 100 µM (inactive) | > 100 µM (inactive) | > 100 µM (inactive) | > 100 µM (inactive) | > 100 µM (inactive) | > 100 µM (inactive) | > 100 µM (inactive) | > 100 µM (inactive) |  | > 100 µM (inactive) | > 100 µM (inactive) | > 100 µM (inactive) | > 100 µM (inactive) | > 100 µM (inactive) | > 100 µM (inactive) | > 100 µM (inactive) | > 100 µM (inactive) | > 100 µM | > 100 µM (inactive) | > 100 µM (inactive) |
| Cc1cc2c(cc1Cl)Sc1nnc(C)n1S2(=O)=O | 14.8 µM (inactive) | 12.3 µM (inactive) | 26.6 µM (inactive) | 16.1 µM (inactive) | 25.1 µM (inactive) |  | 8.53 µM (inactive) | 15.1 µM (inactive) | 16.9 µM (inactive) | 8.67 µM (inactive) | 14.4 µM (inactive) | 13.8 µM (inactive) |  | 8.69 µM (inactive) | 17.7 µM (inactive) | 16.1 µM (inactive) | 11.7 µM (inactive) | 11.2 µM | 14 µM (inactive) | 13.8 µM (inactive) |
| COc1c2ccoc2c(OC)c2oc(=O)ccc12 [ISOPIMPINELLIN] | > 100 µM (inactive) | > 100 µM (inactive) |  | > 100 µM (inactive) | > 100 µM (inactive) | > 100 µM (inactive) | > 100 µM (inactive) | > 100 µM (inactive) | > 100 µM (inactive) |  | > 100 µM (inactive) | > 100 µM (inactive) |  | > 100 µM (inactive) | > 100 µM (inactive) | > 100 µM (inactive) | > 100 µM (inactive) | > 100 µM | > 100 µM (inactive) | > 100 µM (inactive) |
| C=CCO[C@]1(CC=C)C(=O)C(=O)OC1C1COC(C)(C)O1 (some centres undefined) | > 100 µM (inactive) | > 100 µM (inactive) |  | 32 µM (inactive) | > 100 µM (inactive) | 25.9 µM (inactive) | 29.4 µM (inactive) | 72.3 µM (inactive) | > 10 µM (inactive) | 17.3 µM (inactive) | 31.8 µM (inactive) | 36 µM (inactive) |  | 21.2 µM (inactive) | > 100 µM (inactive) | 35.1 µM (inactive) | 41.6 µM (inactive) | 21.1 µM |  | 27.4 µM (inactive) |
